Results published in US12139520B2 (priority 2020, dated 2024).
Numbered stars: 1 amine (or outer) side, 2 acyl side, 3 side chain; on linkers, the order of the positions; unused ones are H or OH. Bridge positions count the residues as written; N and C are the ends. Square brackets hold non-standard residues; d marks the D form. Peptide text beside a SMILES is read from it. * marks the point of attachment. C20 diacid = O=C(O)CCCCCCCCCCCCCCCCCCC(=O)*; γGlu = O=C(O)[C@H](CCC(=O)[*:2])N[*:1]; Hyp = O=C(O)[C@@H]1C[C@@H](O)CN1

Key:
hAMY3 receptor = molecular target: T1, hAMY3 receptor (Homo sapiens, UniProt O60896+P30988); test: cAMP assay for in vitro receptor activation, hAMY3-R; type: cell-based; settings: cAMP assay, hAMY3 receptor; read-out: hAMY3R EC50
T1 sequence (P30988 25-474): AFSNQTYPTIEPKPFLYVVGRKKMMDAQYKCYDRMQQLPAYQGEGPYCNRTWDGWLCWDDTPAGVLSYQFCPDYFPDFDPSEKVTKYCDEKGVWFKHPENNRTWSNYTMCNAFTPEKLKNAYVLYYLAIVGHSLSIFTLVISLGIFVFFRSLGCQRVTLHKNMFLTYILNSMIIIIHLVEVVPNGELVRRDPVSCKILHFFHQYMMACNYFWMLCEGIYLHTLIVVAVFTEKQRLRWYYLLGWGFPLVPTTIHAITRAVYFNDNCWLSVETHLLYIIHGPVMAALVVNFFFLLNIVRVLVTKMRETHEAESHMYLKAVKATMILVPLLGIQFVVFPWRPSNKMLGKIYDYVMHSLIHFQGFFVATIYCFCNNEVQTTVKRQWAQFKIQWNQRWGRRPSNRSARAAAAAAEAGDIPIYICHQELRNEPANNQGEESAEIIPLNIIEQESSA
T1 sequence (O60896 24-148 partner): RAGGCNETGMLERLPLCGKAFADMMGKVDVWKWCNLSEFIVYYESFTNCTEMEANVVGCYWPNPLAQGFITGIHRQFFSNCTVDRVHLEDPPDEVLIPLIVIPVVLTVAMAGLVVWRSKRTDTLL
Summary of the method: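 Thawed cells from a sub-cloned monoclonal hAMY3-overexpressing line are plated in DPBS containing 0.05% casein and 0.5 mM IBMX. Test compounds are added immediately at graded doses for 30 min at room temperature. Reagents for cAMP detection are then added, and TR-FRET is recorded after one hour.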

hAM1 receptor = hAM1 receptor (Homo sapiens, UniProt O60895+Q16602); test: cAMP assay for in vitro receptor activation, hAM1-R; type: cell-based; settings: cAMP assay, hAM1 receptor; read-out: hAM1R EC50
Summary of the method: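 cAMP accumulation was measured in a monoclonal cell line stably overexpressing the hAM1 receptor. Frozen aliquots were thawed and plated at 8000 cells/well in DPBS containing 0.05% casein and 0.5 mM IBMX.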

[1] = Acute food intake study in lean rats; type: in vivo, rat; settings: single SC injection, lean healthy rats; for Average cumulative food intake: up to 48 h, P < 0.001 vs vehicle
Procedure: General Protocols for Acute Food Intake Study
The effect on cumulative food intake was measured in male Sprague Dawley rats (6 weeks of age, Taconic, Denmark) following a single dose using a fully automated food intake monitoring system (HM-2; MBRose ApS, Faaborg, Denmark), allowing for advanced synchronous real-time monitoring of food intake behaviour of individual animals. The animals were housed in groups of 4 in a light-, temperature-, and humidity-controlled room (a 12/12 LD cycle, lights on at 02:00 AM; 22±2° C.; 50% relative humidity). The mice had ad libitum access to regular chow diet (Altromin 1324, Brogaarden A/S, Lynge, Denmark) and domestic quality tap water. Mice arrived at day 7, and a minimum of 5 days of habituation to the system was allowed prior to beginning of the study. During these days, the animals were handled daily to accustom them to the experimental paradigm. On the day of dosing, the animals were randomized into groups according to body weight. Animals were fasted for four hours prior to dosing. Animals were dosed SC 30 or 180 min prior to lights out, and food intake data were collected automatically for a total of 48 h post-dosing with automatic food recordings every 5 min.

[2] = Physical stability of peptide analogues (Thioflavin T fibrillation); type: physicochemical; settings: maximum ThT signal normalized between hAMY maximum and buffer background; 40° C., shaking, four days; pH 7 per table title
Summary of the method: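 ThT fluorescence (450 nm excitation, 480 nm emission; 4 μM dye) was read every 10 min over four days at 40° C under 700 rpm shaking stress, after 1 h in pH 4 acetate or pH 7 phosphate (50 mM). Peak smoothed signal expressed as percent, scaled between buffer background and hAMY maximum.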

hAM1 receptor, sequence (Q16602 23-461): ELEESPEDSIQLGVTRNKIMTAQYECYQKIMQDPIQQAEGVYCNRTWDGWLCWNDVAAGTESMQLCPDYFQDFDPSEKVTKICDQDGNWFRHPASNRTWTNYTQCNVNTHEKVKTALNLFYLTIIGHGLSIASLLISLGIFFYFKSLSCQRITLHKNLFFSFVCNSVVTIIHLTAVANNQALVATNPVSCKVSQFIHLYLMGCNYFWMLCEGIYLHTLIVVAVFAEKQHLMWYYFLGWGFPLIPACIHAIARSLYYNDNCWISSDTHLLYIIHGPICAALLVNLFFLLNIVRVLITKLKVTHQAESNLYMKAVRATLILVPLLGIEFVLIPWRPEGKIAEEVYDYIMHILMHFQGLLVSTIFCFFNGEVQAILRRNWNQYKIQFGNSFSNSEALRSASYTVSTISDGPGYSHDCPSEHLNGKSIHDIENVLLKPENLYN
hAM1 receptor, sequence (O60895 43-175 partner): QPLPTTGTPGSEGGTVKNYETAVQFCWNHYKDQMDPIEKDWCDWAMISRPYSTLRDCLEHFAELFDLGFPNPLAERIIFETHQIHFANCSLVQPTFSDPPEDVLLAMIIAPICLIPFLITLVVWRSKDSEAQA

SMILES | EC50 (hAMY3 receptor) [nM] | EC50 (hAM1 receptor) [nM] | cumulative food intake, % to vehicle ([1]; 10 nmol/kg) [%] | Average cumulative food intake ([1]; 10 nmol/kg) [g] | cumulative food intake, % to vehicle ([1]; 30 nmol/kg) [%] | Average cumulative food intake ([1]; 30 nmol/kg) [g] | Max ThT signal (%) [2] [%]
CC[C@H](C)[C@H](NC(=O)[C@H](CCC(N)=O)NC(=O)[C@H](Cc1c[nH]cn1)NC(=O)[C@H](C)NC(=O)[C@H](CC(C)C)NC(=O)[C@H](CCCNC(=N)N)NC(=O)[C@H](CC(=O)O)NC(=O)[C@@H](NC(=O)[C@@H](NC(=O)[C@@H]1CSSC[C@H](NC(=O)[C@H](CCCCN)NC(=O)CC[C@H](NC(=O)CCCCCCCCCCCCCCCCCCC(=O)O)C(=O)O)C(=O)N[C@@H](CC(N)=O)C(=O)N[C@@H]([C@@H](C)O)C(=O)N[C@@H](C)C(=O)N[C@@H]([C@@H](C)O)C(=O)N1)[C@@H](C)O)C(C)C)C(=O)N[C@@H](Cc1ccc(O)cc1)C(=O)N[C@@H](CCC(N)=O)C(=O)N[C@@H](Cc1ccccc1)C(=O)N[C@H](C(=O)N[C@@H](CC(=O)O)C(=O)N[C@@H](CCCCN)C(=O)N[C@@H](CC(=O)O)C(=O)N[C@@H](CCCCN)C(=O)N[C@@H](CC(=O)O)C(=O)N[C@@H](CC(N)=O)C(=O)N[C@H](C(=O)N[C@@H](C)C(=O)N1CCC[C@H]1C(=O)N1CCC[C@H]1C(=O)N[C@H](C(=O)N[C@@H](CC(N)=O)C(=O)N[C@H](C(=O)NCC(=O)N[C@@H](CO)C(=O)N[C@@H](CC(N)=O)C(=O)NCC(=O)N1C[C@H](O)C[C@H]1C(N)=O)C(C)C)[C@@H](C)O)C(C)C)[C@@H](C)O [compound 4] ({C20 diacid-γGlu}-KCNTATCTVDRLAHQIYQFTDKDKDNVAPPTNVGSNG[Hyp]-NH2; disulfide 2-7) | 0.006 | > 5000 | 59.23 | 26.3 | 30.86 | 13.7 | 
CC[C@H](C)[C@H](NC(=O)[C@H](CCC(N)=O)NC(=O)[C@H](Cc1c[nH]cn1)NC(=O)[C@H](C)NC(=O)[C@H](CC(C)C)NC(=O)[C@H](CCCNC(=N)N)NC(=O)[C@H](CCC(N)=O)NC(=O)[C@@H](NC(=O)[C@@H](NC(=O)[C@@H]1CSSC[C@H](NC(=O)[C@H](CCCCN)NC(=O)CC[C@H](NC(=O)CCCCCCCCCCCCCCCCCCC(=O)O)C(=O)O)C(=O)N[C@@H](CC(N)=O)C(=O)N[C@@H]([C@@H](C)O)C(=O)N[C@@H](C)C(=O)N[C@@H]([C@@H](C)O)C(=O)N1)[C@@H](C)O)C(C)C)C(=O)N[C@@H](C)C(=O)N[C@@H](CCC(N)=O)C(=O)N[C@@H](Cc1ccccc1)C(=O)N[C@H](C(=O)N[C@@H](CC(=O)O)C(=O)N[C@@H](CCCCN)C(=O)N[C@@H](CC(=O)O)C(=O)N[C@@H](CCCCN)C(=O)N[C@@H](CC(=O)O)C(=O)N[C@@H](CC(N)=O)C(=O)N[C@H](C(=O)N[C@@H](C)C(=O)N1CCC[C@H]1C(=O)N1CCC[C@H]1C(=O)N[C@H](C(=O)N[C@@H](CC(N)=O)C(=O)N[C@H](C(=O)NCC(=O)N[C@@H](CO)C(=O)N[C@@H](CC(N)=O)C(=O)N[C@@H](CO)C(=O)N1C[C@H](O)C[C@H]1C(N)=O)C(C)C)[C@@H](C)O)C(C)C)[C@@H](C)O [compound 69] ({C20 diacid-γGlu}-KCNTATCTVQRLAHQIAQFTDKDKDNVAPPTNVGSNS[Hyp]-NH2; disulfide 2-7) | 0.013 |  | 17.52 | 7.13 |  |  | 
CC[C@H](C)[C@H](NC(=O)[C@H](CCCCN)NC(=O)[C@@H](NC(=O)[C@H](CCCNC(=N)N)NC(=O)[C@@H]1CCCN1C(=O)[C@H](C)NC(=O)[C@@H](NC(=O)[C@H](CC(N)=O)NC(=O)[C@H](CC(=O)O)NC(=O)[C@H](CCCCN)NC(=O)[C@H](CC(=O)O)NC(=O)[C@H](CCCCN)NC(=O)[C@H](CC(=O)O)NC(=O)[C@@H](NC(=O)[C@H](Cc1ccccc1)NC(=O)[C@H](CCC(N)=O)NC(=O)[C@H](Cc1ccc(O)cc1)NC(=O)[C@@H](NC(=O)[C@H](CCC(N)=O)NC(=O)[C@H](Cc1c[nH]cn1)NC(=O)[C@H](C)NC(=O)[C@H](CC(C)C)NC(=O)[C@H](CCCNC(=N)N)NC(=O)[C@H](CCC(N)=O)NC(=O)[C@@H](NC(=O)[C@@H](NC(=O)[C@@H]1CSSC[C@H](NC(=O)CN)C(=O)N[C@@H](CCCNC(=N)N)C(=O)N[C@@H](Cc2ccccc2)C(=O)NCC(=O)N[C@@H]([C@@H](C)O)C(=O)N1)[C@@H](C)O)C(C)C)[C@@H](C)CC)[C@@H](C)O)C(C)C)[C@@H](C)O)C(=O)NCC(=O)N1CCC[C@H]1C(=O)N[C@@H](CC(N)=O)C(=O)NCC(=O)N1C[C@H](O)C[C@H]1C(N)=O [compound 124] (H-GCRFGTCTVQRLAHQIYQFTDKDKDNVAPRTKIGPNG[Hyp]-NH2; disulfide 2-7) | 0.027 |  | 59.46 | 24.2 |  |  | 4.800
CC[C@H](C)[C@H](NC(=O)[C@H](CCC(N)=O)NC(=O)[C@H](Cc1c[nH]cn1)NC(=O)[C@H](C)NC(=O)[C@H](CC(C)C)NC(=O)[C@H](CCCNC(=N)N)NC(=O)[C@H](CCC(N)=O)NC(=O)[C@@H](NC(=O)[C@@H](NC(=O)[C@@H]1CSSC[C@H](NC(=O)CN)C(=O)N[C@@H](CCCNC(=N)N)C(=O)N[C@@H](Cc2ccccc2)C(=O)NCC(=O)N[C@@H]([C@@H](C)O)C(=O)N1)[C@@H](C)O)C(C)C)C(=O)N[C@@H](Cc1ccc(O)cc1)C(=O)N[C@@H](CCC(N)=O)C(=O)N[C@@H](Cc1ccccc1)C(=O)N[C@H](C(=O)N[C@@H](CC(=O)O)C(=O)N[C@@H](CCCCN)C(=O)N[C@@H](CC(=O)O)C(=O)N[C@@H](CCCCN)C(=O)N[C@@H](CC(=O)O)C(=O)N[C@@H](CC(N)=O)C(=O)N[C@H](C(=O)N[C@@H](C)C(=O)N1CCC[C@H]1C(=O)N[C@@H](CCCNC(=N)N)C(=O)N[C@@H](CO)C(=O)N[C@@H](CC(N)=O)C(=O)N[C@H](C(=O)NCC(=O)N1CCC[C@H]1C(=O)N[C@@H](CCC(N)=O)C(=O)NCC(=O)N[C@@H](Cc1ccc(O)cc1)C(N)=O)C(C)C)C(C)C)[C@@H](C)O [compound 374] (H-GCRFGTCTVQRLAHQIYQFTDKDKDNVAPRSNVGPQGY-NH2; disulfide 2-7; N-terminus assumed) | 0.021 | 12 |  |  |  |  | 4.800
CC[C@H](C)[C@H](NC(=O)[C@H](CCC(N)=O)NC(=O)[C@H](Cc1c[nH]cn1)NC(=O)[C@H](C)NC(=O)[C@H](CC(C)C)NC(=O)[C@H](CCCNC(=N)N)NC(=O)[C@H](CCC(N)=O)NC(=O)[C@@H](NC(=O)[C@@H](NC(=O)[C@@H]1CSSC[C@H](NC(=O)CN)C(=O)N[C@@H](CCCNC(=N)N)C(=O)N[C@@H](Cc2ccccc2)C(=O)NCC(=O)N[C@@H]([C@@H](C)O)C(=O)N1)[C@@H](C)O)C(C)C)C(=O)N[C@@H](Cc1ccc(O)cc1)C(=O)N[C@@H](CCC(N)=O)C(=O)N[C@@H](Cc1ccccc1)C(=O)N[C@H](C(=O)N[C@@H](CC(=O)O)C(=O)N[C@@H](CCCCN)C(=O)N[C@@H](CC(=O)O)C(=O)N[C@@H](CCCCN)C(=O)N[C@@H](CC(=O)O)C(=O)N[C@@H](CC(N)=O)C(=O)N[C@H](C(=O)N[C@@H](C)C(=O)N1CCC[C@H]1C(=O)N[C@@H](CCCNC(=N)N)C(=O)N[C@@H](CO)C(=O)N[C@@H](CC(N)=O)C(=O)N[C@H](C(=O)N[C@@H](CO)C(=O)N1CCC[C@H]1C(=O)N[C@@H](CC(N)=O)C(=O)NCC(=O)N[C@@H](Cc1ccc(O)cc1)C(N)=O)[C@@H](C)CC)C(C)C)[C@@H](C)O [compound 383] (H-GCRFGTCTVQRLAHQIYQFTDKDKDNVAPRSNISPNGY-NH2; disulfide 2-7; N-terminus assumed) | 0.034 | 5.94 |  |  |  |  | 9.600
